Reference: patent US6808873B2, “Screening assays using intramitochondrial calcium” (MitoKor, Inc., priority 2000, dated 2004)

Assays:
Ca^2+ uniporter [1] = molecular target: T1, Ca^2+ uniporter (Homo sapiens, UniProt Q8NE86); experiment: High-throughput uniporter assay of different compounds, permeabilized HepG2 cells with and without thapsigargin, FLIPR II; type: cell-based
T1 construct: The effects of several intracellular Ca^2+ modulating agents (ICMAs) on permeabilized HepG2 cells were examined; endogenous in cells; host or cells: HepG2 (ATCC HB-8065), digitonin-permeabilized, in suspension
T1 sequence (Q8NE86 51-351): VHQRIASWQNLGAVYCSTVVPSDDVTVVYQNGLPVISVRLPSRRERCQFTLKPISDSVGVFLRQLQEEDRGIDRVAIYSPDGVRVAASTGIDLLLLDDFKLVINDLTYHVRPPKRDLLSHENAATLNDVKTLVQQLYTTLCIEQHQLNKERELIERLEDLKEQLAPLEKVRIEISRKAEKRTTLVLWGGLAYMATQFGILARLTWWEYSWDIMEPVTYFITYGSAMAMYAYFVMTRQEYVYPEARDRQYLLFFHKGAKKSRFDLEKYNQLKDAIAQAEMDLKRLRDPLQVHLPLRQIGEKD
T1 sequence (Q9H4I9 48-107 partner limits assumed): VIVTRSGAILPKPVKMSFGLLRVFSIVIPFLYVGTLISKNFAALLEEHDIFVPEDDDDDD
Excerpt: The high-throughput uniporter assay protocol, carried out as described above for suspension cells, was used to determine the effect of different compounds on mitochondria and extramitochondrial Ca^2+ concentrations in the presence or absence of the Ca^2+ uptake inhibitor of the endoplasmic reticulum, thapsigargin (Calbiochem). Agents examined in this assay include calcium channel inhibitors, pro- and anti-oxidants, mitochondrial inhibitors and uncouplers, and the Ca—UP inhibitor Ru360. On the day of the assay, solutions of the respiratory/cell permeabilizing media containing digitonin with thapsigarin (MM-TD) and without thapsigarin (MM-D) were prepared as previously described. Calcium chloride was added to each to a final concentration of 6 micromolar Ca^2+, resulting in MM-TD, 6 uM Ca and MM-D, 6 uM Ca. A MM solution was prepared with a 10× Ca^2+ concentration of 200 micromolar for the second Ca^2+ pulse. The Ca^2+-uniporter inhibitor Ru360 was prepared at a 10× concentration of 100 microliters in MM. Ten times (10×) stock solutions of the other agents were prepared for the assay by the addition of the compounds to final concentrations of 10 micromolar into MM. […] Controls include water and 10% DMSO (Sigma) in MM.
Cells of the HepG2 cell line (hepatocellular carcinoma, ATCC HB-8065) were trypsinized from near-confluent flasks in growth media (Eagle's MEM with non-essential amino acids, sodium pyruvate and Earle's BSS, 90%; FBS 10%). Cells were centrifuged, growth media was aspirated, and cells were resuspended to a concentration of 1×10^7 cells per milliliter in MM-TD, 6 uM Ca, or MM-D, 6 uM Ca. One hundred (100) microliters of the cell suspension (about 1×10^6 cells) were delivered to wells of a microtiter plate. The plate was placed in a FLIPR™ II (used in 96-well format) warmed to 37° C. An 11.1 microliter aliquot of the 10× stock solutions with water or DMSO (controls), Ru360 (Ca—UP inhibitor), or the test compounds, were dispensed into designated wells such that the assay concentration of DMSO is 0.1%, Ru360 is 10 micromolar, and each of the test compounds are at 1 micromolar concentrations. After an additional three minutes, a second addition of 12.3 microliters of the 10× CaCl2 (200 micromolar Ca^2+), was dispensed into the wells of the microtiter plate resulting in assay concentrations of 20 micromolar Ca^2 (Extramitochondrial Ca^2+ bound to the calcium indicator dye was monitored throughout and profiles of each assay; the results are presented in FIG. 12, with all thapsigargin minus (thaps−) assays in wells corresponding to columns 1-6 and thapsigargin plus (thaps+) assays in wells corresponding to columns 7-12.

Ca^2+ uniporter [2] = molecular target: T1, Ca^2+ uniporter; experiment: Ca^2+ uniporter assay, digitonin-permeabilized suspended HepG2 cells, Calcium-Green-5N on FLIPR, ICMA added between two Ca^2+ pulses; type: cell-based; details: 5 micrograms/milliliter oligomycin, 2 micromolar rotenone, 1 micromolar FCCP; for mitochondrial uptake of the second Ca^2+ pulse: second Ca^2+ pulse at about t=6 min, 1 micromolar RU360
Description: A master mix solution (MM Solution) was prepared by the addition of glutamate and malate to final concentrations of 5 millimolar each, MgCl2 to a final concentration of 1 millimolar, EGTA to a final concentrations of 0 to 8 micromolar, and Calcium-Green-5N to a final concentration of 0.1 to 1.0 micromolar, to a basic KCl-based respiratory media (“BReM”) that is described in Table 3. […] The hexapotassiun salt Calcium-Green-5N (Molecular Probes, Eugene, Oreg.) in the MM Solution is a fluorescent dye that has low binding affinity to Ca^2+.
Thapsigargin (Calbiochem, San Diego, Calif.), a Ca^2+ uptake inhibitor of the endoplasmic reticulum (ER), was added to the MM Solution to a final concentration of 1 micromolar to yield a solution designated “MM-T” (i.e., Master Mix with Thapsigargin).
The cell membrane permeabilizing agent digitonin (Sigma, St. Louis, Mo.) was added to MM-T to a final concentration of from about 0.007% to about 0.03% to yield a solution referred to as “MM-TD” (i.e., Master Mix with Thapsigargin and digitonin. CaCl2 was added to MM-T to provide a solution with a determined final concentration of Ca^2+ for the determination of intracellular Ca^2+ flux.
The effects of several intracellular Ca^2+ modulating agents (ICMAs) on permeabilized HepG2 cells were examined as follows. The mitochondrial respiratory inhibitors oligomycin (Calbiochem, San Diego, Calif.) and rotenone (Calbiochem) were added to MM-T to final concentrations of 50 micrograms/milliliter and 20 micromolar, respectively. The uncoupler FCCP was similarly added to MM-T to a 10× concentration (10 micromolar) to yield a stock solution of FCCP, MM-TF (i.e., Master Mix with Thapsigargin and FCCP). The ICMA Ru360, which blocks Ca^2+ uptake into the mitochondria by the calcium uniporter, was added to MM-T to a concentration of 100 micromolar to yield MM-T360 (i.e., Master Mix with Thapsigragin and Ru360). CaCl2 was added to MM-T to yield a 10× solution of CaCl2 (120 micromolar) in MM-T.
HepG2 cells were cultured in Eagle's minimal essential medium (MEM) with non-essential amino acids, sodium pyruvate and Earle's balanced salt solution (BSS), 90%; fetal bovine serum (FBS), 10%. Cells were centrifuged (500×g) and the growth media was aspirated from the pellet. The HepG2 cells were resuspended in MM-TD at a concentration of 1×10^7 cells/milliliter, and 100 microliters of the resuspended permeabilized cells were dispensed into wells of a 96-well Costar 3603 microplate. The plate was placed into a FLIPR™ prewarmed to 37° C. MM-T, 120 micromolar Ca^2+, was dispensed into the cell-containing wells at a volume of 11.1 microliters, yielding a final assay concentration of 12 micromolar Ca^2+. The addition of Ca^2+ at this stage of the assay is referred to as the first calcium pulse and the time at which Ca^2+ is added is designated t=0.
After about three minutes (i.e., at about t=3 min.), 12.3 microliters of one of the ICMA solutions were dispensed into wells containing permeabilized cells to yield final assay concentrations of 5 micrograms/milliliter oligomycin, 2 micromolar rotenone, 1 micromolar FCCP, 1 micromolar RU360, and MM-T (no ICMA).
Cells were exposed to a second calcium pulse by the addition of 13.7 microliters of MM-T, 120 micromolar Ca^2+, to the cells after an additional 3 minutes (i.e., at about t=6 min.).

Ca^2+ uniporter [3] = tested on: Ca^2+ uniporter
Description: On the day of the assay a master mix solution (MM) was prepared by the addition of glutamate and malate from the stock solutions to final concentrations of 5 millimolar each, 1 millimolar MgCl2, and 0.5 micromolar Calcium-Green-5N (Molecular Probes, Eugene, Oreg.). The hexapotassium salt Calcium-Green-5N (Molecular Probes, Eugene, Oreg.) in the MM is a fluorescent dye that has low binding affinity to Ca^2+. The cell membrane permeabilizing agent digitonin (Sigma, St. Louis, Mo.) was added to MM to a final concentration of 0.007% to yield a solution designated MM-D. To this mixture CaCl2 was added to a final concentration of 6 micromolar Ca^2+ to yield a solution designated MM-D, 6 uM Ca. A 10× Ca^2+ stock solution was prepared by addition of CaCl2 to a final concentration of 200 micromolar in MM (no digitonin), and 10× solutions of FCCP were also prepared in MM to give concentrations of 0, 0.2, 0.4, 0.6, 0.8, 1.0, 2.0, 5.0, and 10.0 micromolar.
HepG2 cells (human hepatocellular carcinoma, ATCC HB-8065) were trypsinized from near-confluent flasks in growth media, Eagle's minimum essential medium (MEM) with non-essential amino acids, sodium pyruvate and Earle's balanced salt solution (BSS), 90%; FBS 10%. Cells were centrifuged, growth media aspirated, and resuspended in the permeabilizing solution MM-D, 6 uM CaCl2. The concentration of cells was adjusted to 1×10^7 cells per milliliter in solution. One hundred (100) microliters of the cell suspension (1×10^6 cells) were delivered to the 96 well microtiter plate. […]
A pulse of 12.3 microliters of the 10× stock CaCl2 solution was introduced into each of the wells of the microtiter plates after about four minutes. Emissions resulting from the binding of extramitochondrial Ca^2+ to the calcium indicator dye were monitored throughout the assay. […]
The average of the changes of fluorescence for the assays (1-12) versus time course where FCCP was added at one minute, and calcium was pulsed into the assay media at approximately 4 minutes, were determined and graphed as a function of time (FIG. 11).

[4] = tested on: mitochondria permeability transition (MPT); experiment: MPT modulation assay, digitonin-permeabilized MixCon cells, Ca-Green-5N, cuvette spectrofluorimeter; type: cell-based
Description: An assay was performed in order to observe the transition induction effect on MPT by the MPT effector, diamide (a thiol oxidizing agent and pro-oxidant). The assay was performed in a digitonin-permeabilized cell line of mixed cybrids, MixCon in the presence of Ca^2+ and Ca-Green-5N and monitored in an LS50B Perkin Elmer Spectrofluorimeter, but is adaptable to the FLIPR system. Initially, ethacrynic acid was added to the MixCon cells in Dulbecco's modified Eagle's medium and 10% FBS, to a final concentration of 100 micromolar and preincubated for 5 minutes to remove the ability of cells to deal with oxidative stress making cells susceptible to the pro-oxidant. The cells were then centrifuged, growth media was aspirated, and cells resuspended, at 1.1×10^7 cells/milliliter, in 2 milliliters of respiratory media containing digitonin (MM-D) whereupon the digitonin (dig) permeabilizes the cells. The suspension was then transferred to a spectrofluorimetric cuvette. The cuvette was placed in the fluorimeter and 0.3 microliters of a 254 millimolar CaCl2 stock was added to the cuvette (final CaCl2 concentration of 40 micromolar). After approximately three minutes diamide was added to the cuvette to a final concentration of 500 micromolar].

[5] = tested on: mitochondria permeability transition (MPT); experiment: MPT modulation assay, digitonin-permeabilized 293T cells, cuvette spectrofluorimeter; type: cell-based, human
Description: The transition induction effect on MPT by the MPT effector, diamide (a thiol oxidizing agent and pro-oxidant) were performed with a second cell line, 293T. The 293T cells were suspended in 2 milliliters of growth media, DMEN and 10% FBS, with 100 micromolar of ethacrynic acid (1×10^7 cells/ml) and preincubated for 14 minutes to remove ability of cells to deal with oxidative stress making them susceptible to the pro-oxidant. The cells were centrifuged, media aspirated, resuspended in 2 milliliters of respiratory media containing digitonin (MM-D), and transferred into a cuvette. The digitonin (dig) in MM-TD permeabilizes the cells. The cuvette was placed in a LS50B Perkin Elmer Spectrofluorimeter and 40 micromolar CaCl2 in H2O was added into the suspension. After approximately three minutes 500 micromolar diamide was dispensed into the cuvette.

[6] = tested on: mitochondria permeability transition (MPT); experiment: High-throughput MPT modulation assay, permeabilized HepG2 cells with and without thapsigargin, FLIPR 384; type: cell-based, human; details: compounds 1 micromolar
Description: HepG2 cells (hepatocellular carcinoma, ATCC HB-8065), in suspension, were used to determine the effect of these compounds on mitochondria Ca^2+ sequestration by monitoring extramitochondrial Ca^2+ concentrations in the presence or absence of the Ca^2+ uptake inhibitor of the endoplasmic reticulum, thapsigargin (Calbiochem, San Diego, Calif.). On the day of the assay solutions of the respiratory media containing digitonin with thapsigarin (MM-TD) and without thapsigarin (MM-D) were prepared as previously described. Calcium chloride was added to each to a final concentration of 6 micromolar Ca^2+, to yield MM-TD, 6 uM Ca, and MM-D, 6 uM Ca. Ten times (10×) stock solutions were prepared for the assay by the addition of each of the compounds to final concentrations of 10 micromolar in MM. Ten times (10×) solutions of CaCl2 was prepared in MM or MM-T to concentrations of 200 micromolar, for the second addition.
The HepG2 cells were trypsinized from near-confluent flasks in growth media (Eagle's MEM with non-essential amino acids, sodium pyruvate and Earle's BSS, 90%; FBS 10%). Cells were centrifuged, media was aspirated, and the cells were resuspended to 1×10^7 cells per milliliter in MM-TD, 6 uM Ca and MM-D, 6 uM Ca, whereby Ca^2+ and the indicator dye enter the cells and Ca^2+ becomes sequestered in mitochondria. One hundred (100) microliters of the cell suspension was delivered to each well of a microtiter plate. The plate was placed in the FLIPR 384 warmed to 37° C. An 11.1 microliter volume of the 10× stock solutions with the test compounds were dispensed into designated wells such that the assay concentration are 1 micromolar. After a three minute interval, a Ca^2+ pulse of 20 micromolar was delivered by adding 12.3 microliters of the 10× CaCl2 solutions containing 200 micromolar Ca^2+.

## N#CC(C#N)=NNc1cccc(Cl)c1 [CCCP, carbonyl cyanide m-chlorophenyl-hydrazone]
Ca^2+ uniporter [1]; test compounds 1 micromolar
  fluorescence signal over the 3 minutes after compound addition (retention of the accumulated 6 micromolar Ca^2+): release Ca^2+ from mitochondria
  uniporter activity profile after the 20 micromolar Ca^2+ pulse: prevent Ca^2+ uptake and retention by the mitochondria

## N#CC(C#N)=NNc1ccc(OC(F)(F)F)cc1 [FCCP, carbonyl cyanide p-(trifluoromethoxy)phenyl-hydrazone]
Ca^2+ uniporter [2]; added about 3 min after first 12 micromolar Ca^2+ pulse, thapsigargin present
  release of sequestered Ca^2+ from mitochondria after addition of the agent: caused the release of Ca^2+ from mitochondria into the cytosol
Ca^2+ uniporter [2]
  mitochondrial uptake of the second Ca^2+ pulse: could not sequester the added Ca^2+
Ca^2+ uniporter [3]; 0.02 or 0.04 uM FCCP, FCCP at 1 min, Ca^2+ pulse at about 4 min, FIG. 10
  effect on CaUP activity at the lowest concentrations: difficult to distinguish from the results obtained when no FCCP was present
Ca^2+ uniporter [3]; FCCP added at t=1 min to cells loaded with 6 micromolar Ca^2+, FIG. 11
  fluorescence upon addition of the agent, before the Ca^2+ pulse: fluorescence rises slightly
Ca^2+ uniporter [3]; FCCP from 1.0 uM to 0.02 uM, FIG. 10
  effect of the uncoupler on CaUP activity with decreasing concentration: decreases in a corresponding manner
[4]; FCCP 0.1 micromolar after 500 micromolar diamide, no CsA
  further Ca^2+ release on addition of uncoupler after diamide: no further release of Ca^2+ from the mitochondria
[4]; FCCP after diamide with 10 micromolar CsA
  Ca^2+ release on addition of uncoupler in the presence of CsA and diamide: Ca^2+ released from the mitochondria
[5]; FCCP 0.1 micromolar after 500 micromolar diamide
  further Ca^2+ release on addition of uncoupler after diamide: no increased level of fluorescence

## CC(=O)N[C@@H](CS)C(=O)O [N-acetylcysteine]
Ca^2+ uniporter [1]; test compounds 1 micromolar
  uniporter activity profile after the 20 micromolar Ca^2+ pulse: uniporter non-inhibitory profile

## CCC(C)N(C)C(=O)c1cc2ccccc2c(-c2ccccc2Cl)n1 (stereo not shown) [PK-11195]
Ca^2+ uniporter [1]; test compounds 1 micromolar
  uniporter activity profile after the 20 micromolar Ca^2+ pulse: uniporter non-inhibitory profile

## N=C(N)NC(=O)c1nc(Cl)c(N)nc1N [amiloride]
Ca^2+ uniporter [1]; test compounds 1 micromolar
  uniporter activity profile after the 20 micromolar Ca^2+ pulse: do not possess uniporter inhibitory activity

## C=C1[C@@H]2CC[C@H]3[C@]4(C)C[C@H](O[C@@H]5O[C@H](CO)[C@@H](OS(=O)(=O)O)[C@H](OS(=O)(=O)O)[C@H]5OC(=O)CC(C)C)C[C@@H](C(=O)O)[C@H]4CC[C@]3(C2)[C@H]1O [atractyloside]
[6]
  assay profile after the 20 micromolar Ca^2+ pulse: initial uptake of Ca^2+ into mitochondria with the slow release of the Ca^2+ into the cytosol
Ca^2+ uniporter [1]; test compounds 1 micromolar
  fluorescence signal over the 3 minutes after compound addition (retention of the accumulated 6 micromolar Ca^2+): slight indication of Ca^2+ release

## CO[C@H](C/C=C\C=C\CC/C=C/C[C@H](C)/C=C/C(=C\C(=O)O)CC(=O)O)/C(C)=C\C=C(/C)C(=O)O [bongkrekic acid]
[6]
  assay profile after the 20 micromolar Ca^2+ pulse: normal mitochondria sequestration of Ca^2+

## CN(CC(=O)O)C(=N)N [creatine]
Ca^2+ uniporter [1]; test compounds 1 micromolar
  uniporter activity profile after the 20 micromolar Ca^2+ pulse: uniporter non-inhibitory profile

## O=C1CN(/N=C/c2ccc(-c3ccc([N+](=O)[O-])cc3)o2)C(O)=N1 [dantrolene]
Ca^2+ uniporter [1]; test compounds 1 micromolar
  uniporter activity profile after the 20 micromolar Ca^2+ pulse: uniporter non-inhibitory profile

## CN(C)C(=O)/N=N/C(=O)N(C)C [diamide, azodicarboxylic acid bis[dimethylamide]]
[6]
  assay profile after the 20 micromolar Ca^2+ pulse: sequestering of Ca^2+ by mitochondria after the Ca^2+ pulse
[4]; diamide 500 micromolar with 10 micromolar CsA
  fluorescence upon addition of diamide in the presence of CsA: only a slight increase in fluorescence
[4]; diamide 500 micromolar, cells preincubated with 100 micromolar ethacrynic acid, 40 micromolar CaCl2
  time until mitochondria released the sequestered Ca^2+ after diamide addition: ≤ 6 min
Ca^2+ uniporter [1]; test compounds 1 micromolar
  uniporter activity profile after the 20 micromolar Ca^2+ pulse: uniporter non-inhibitory profile
[5]; diamide 500 micromolar
  time after which the rate of Ca^2+ release substantially increased: about 7.5 minutes
[5]; diamide 500 micromolar, ethacrynic acid 100 micromolar preincubation 14 minutes, 40 micromolar CaCl2
  Ca^2+ release from mitochondria after diamide addition: immediately began to slowly release Ca^2+ to the medium

## COc1ccc([C@@H]2Sc3ccccc3N(CCN(C)C)C(=O)[C@@H]2OC(C)=O)cc1 [diltiazem]
Ca^2+ uniporter [1]; test compounds 1 micromolar
  uniporter activity profile after the 20 micromolar Ca^2+ pulse: do not possess uniporter inhibitory activity

## COc1ccc(Cl)cc1C(=O)NCCc1ccc(S(=O)(=O)NC(=O)NC2CCCCC2)cc1 [glyburide]
Ca^2+ uniporter [1]; test compounds 1 micromolar
  uniporter activity profile after the 20 micromolar Ca^2+ pulse: uniporter non-inhibitory profile

## C[C@H](CCC(=O)O)C[C@H](C)C[C@H](C)C(=O)/C=C(\O)[C@H](C)C[C@H](C)C/C=C/[C@@H](C)[C@@H](O)[C@@H](C)[C@@H](O)C[C@@H]1CC[C@@](C)([C@H]2CC[C@@](C)([C@@H](C)O)O2)O1 [ionomycin]
Ca^2+ uniporter [1]; test compounds 1 micromolar
  fluorescence signal over the 3 minutes after compound addition (retention of the accumulated 6 micromolar Ca^2+): release Ca^2+ from cell stores
  uniporter activity profile after the 20 micromolar Ca^2+ pulse: prevent Ca^2+ uptake and retention by the mitochondria

## CN1CCN(CCCN2c3ccccc3Sc3ccc(C(F)(F)F)cc32)CC1 [trifluoroperazine]
Ca^2+ uniporter [1]; test compounds 1 micromolar
  uniporter activity profile after the 20 micromolar Ca^2+ pulse: do not possess uniporter inhibitory activity

## Ru360
Ca^2+ uniporter [2]
  mitochondrial uptake of the second Ca^2+ pulse: prevented the uptake of Ca^2+ by the Ca Uniporter
Ca^2+ uniporter [1]; Ru360 10 micromolar
  uniporter activity profile after the 20 micromolar Ca^2+ pulse: no uptake of Ca^2+ by the uniporter
